Reference: patent publication US12201594B2, “Methods and compositions for treatment of pain using capsaicin” (Centrexion Therapeutics Corporation, priority 2017, dated 2025)

Tests used:
[1] = tested on: human patients experiencing osteoarthritic knee joint pain; assay: Safety assessments (TEAEs, SAEs, procedural pain ratings) after single intra-articular injection of capsaicin with cooling and lidocaine, Example 1; type: in vivo; settings: for All TEAEs / Arthralgia / Hepatic enzyme increased / Influenza / Joint effusion / Nasopharyngitis / Upper respiratory tract infection: through 24 weeks
Method: (§1) Human patients experiencing osteoarthritic knee joint pain received either placebo, a 0.5 mg intra-articular injection of capsaicin into the osteoarthritic knee joint, or a 1.0 mg intra-articular injection of capsaicin into the osteoarthritic knee joint. Transient burning sensation due to administration of capsaicin was attenuated by administering capsaicin according to the following procedure: (i) applying for a duration of about 15 minutes a cooling article to an exterior surface of a human patient's knee presenting with osteoarthritic knee joint pain, wherein the cooling article was a Breg cooling wrap cooled by circulating ice-cold water, (ii) administering by injection into the intra-articular space of the joint of the knee a 15 mL aliquot of a 2% w/w lidocaine solution in saline, (iii) applying for a duration of about 30 minutes a cooling article to an exterior surface of the knee, wherein the cooling article was a Breg cooling wrap cooled by circulating ice-cold water, (iv) administering by injection into the intra-articular space of the joint of the knee a 4 mL aliquot of a solution containing water, polyethylene glycol having a number-average molecular weight of about 300 g/mol, and for patients receiving capsaicin a dose of capsaicin in an amount of 0.5 mg or 1.0 mg, and (v) applying a cooling article to an exterior surface of the knee for a duration of at least about 30 minutes (and up to 60) minutes upon patient request), wherein the cooling article was a Breg cooling wrap cooled by circulating ice-cold water. Further description of experimental procedures and results are provided below:
(§2) Human patients aged 45-80 years with chronic knee osteoarthritis, stable moderate to severe pain, and intolerability to analgesics were randomized to receive a single intra-articular injection of placebo into the osteoarthritic knee, a single intra-articular injection of a 0.5 mg dose of capsaicin into the osteoarthritic knee, or a single intra-articular injection of a 1.0 mg dose of capsaicin into the osteoarthritic knee.
as §1, with “The test article (i.e., placebo” for “Human patients experiencing osteoarthritic knee joint pain received either placebo, a 0.5 mg intra-articular injection of capsaicin into the osteoarthritic knee joint,”, “capsaicin)” for “a 1.0 mg intra-articular injection of capsaicin into the osteoarthritic knee joint. Transient burning sensation due to administration of capsaicin”, “administered” for “attenuated by administering capsaicin”, “60” for “60)”, “water.” for “water. Further description of experimental procedures and results are provided below:”
Safety assessments included treatment-emergent adverse events (TEAEs), serious AEs (SAEs), laboratory abnormalities, and procedural pain ratings (none, mild, moderate, moderately severe, severe). The procedure pain ratings characterize the extent of transient burning sensation experienced by patients due to administration of capsaicin.

[2] = tested on: osteoarthritic knee joint pain; assay: Patient-specific Functional Scale (PSFS), Example 1; type: in vivo, human
Method: as §2
as §1, with “The test article (i.e., placebo” for “Human patients experiencing osteoarthritic knee joint pain received either placebo, a 0.5 mg intra-articular injection of capsaicin into the osteoarthritic knee joint,”, “capsaicin)” for “a 1.0 mg intra-articular injection of capsaicin into the osteoarthritic knee joint. Transient burning sensation due to administration of capsaicin”, “administered” for “attenuated by administering capsaicin”, “60” for “60)”, “water.” for “water. Further description of experimental procedures and results are provided below:”
(§3) Patients completed Patient Global Impression of Change (PGIC; change vs baseline in index knee on 7-point scale; 1=very much improved; 7=very much worse, with scores of 1 or 2 indicating significant improvement) and Patient-specific Functional Scale (PSFS; rate≤3 important activities difficult to perform due to index knee pain on 0-10 scale; 0-able to perform; 10=unable to perform) at scheduled visits. Odds ratios for PGIC scores were calculated with chi-square tests. Changes in Western Ontario and McMaster Universities Osteoarthritis Index (WOMAC) B stiffness subscale and WOMAC C function subscale through week 24 were also assessed. PSFS, WOMAC B, and WOMAC C scores were evaluated using a mixed model for repeated measures. Statistical tests were 2-sided (alpha, P=0.10).

[3] = tested on: osteoarthritic knee joint pain; assay: WOMAC B stiffness subscale and WOMAC C function subscale, Example 1; type: in vivo, human; settings: 1.0 mg dose; through week 16
Method: as §2, with “knee. […]” for “knee.”
as §3, with “Statistical tests were 2-sided (alpha, P=0.10).” left out

[4] = tested on: osteoarthritic knee joint pain; assay: Patient Global Impression of Change (PGIC), Example 1; type: in vivo, human
Method: as §2
as §1, with “The test article (i.e., placebo” for “Human patients experiencing osteoarthritic knee joint pain received either placebo, a 0.5 mg intra-articular injection of capsaicin into the osteoarthritic knee joint,”, “capsaicin)” for “a 1.0 mg intra-articular injection of capsaicin into the osteoarthritic knee joint. Transient burning sensation due to administration of capsaicin”, “administered” for “attenuated by administering capsaicin”, “60” for “60)”, “water.” for “water. Further description of experimental procedures and results are provided below:”
as §3

[5] = tested on: pain due to an intermetatarsal neuroma; assay: Average walking pain due to intermetatarsal neuroma (NPRS) after two doses of trans-capsaicin, Example 3; type: in vivo, human; settings: 200 μg
Method: Twenty-seven adult, human patients experiencing pain due to an intermetatarsal neuroma were treated by administering a first dose of trans-capsaicin (200 μg of trans-capsaicin) and then, after at least 11 weeks, administered a second dose of trans-capsaicin (200 μg of trans-capsaicin). Patients rated their average walking pain due to the intermetatarsal neuroma on a Numeric Pain Rating Scale (NPRS), where pain is characterized by the patient on a scale of zero to ten (with zero being “no pain”, and ten being “worst possible pain”). Patients rated their average walking pain due to the intermetatarsal neuroma on (i) just prior to receiving the injection of trans-capsaicin and (ii) four (4) weeks after receiving each injection of trans-capsaicin. Patients reported a reduction in average walking pain due to the intermetatarsal neuroma when measured at four weeks after injection of trans-capsaicin for each administration of trans-capsaicin. […]
Pain due to the intermetatarsal neuroma was evaluated by having patients rate their average walking pain due to the intermetatarsal neuroma on a Numeric Pain Rating Scale (NPRS), where pain is characterized by the patient on a scale of zero to ten (with zero being “no pain”, and ten being “worst possible pain”). […]

[6] = 2 hours after injection, all groups (capsaicin or placebo)
[7] = either 0.5 mg or 1.0 dose (n = 105)

## COc1cc(CNC(=O)CCCCC=CC(C)C)ccc1O [Capsaicin, N-[(4-hydroxy-3-methoxyphenyl)methyl]-8-methylnon-6-enamide]
[1]; 0.5 mg dose IA (n = 34)
  All TEAEs: 16 (47) n (%)
  Arthralgia: 3 (8.8) n (%)
  Hepatic enzyme increased: 2 (5.9) n (%)
  Influenza: 1 (2.9) n (%)
  Joint effusion: 3 (8.8) n (%)
  Nasopharyngitis: 1 (2.9) n (%)
  Upper respiratory tract infection: 2 (5.9) n (%)
[1]; 1.0 mg dose IA (n = 71)
  All TEAEs: 21 (30) n (%)
  Arthralgia: 5 (7.0) n (%)
  Hepatic enzyme increased: 1 (1.4) n (%)
  Influenza: 2 (2.8) n (%)
  Joint effusion: 0 n (%)
  Nasopharyngitis: 2 (2.8) n (%)
  Upper respiratory tract infection: 3 (4.2) n (%)
[1]; [6]
  patients reporting mild pain (procedural pain rating): 39%
  patients reporting no pain (procedural pain rating): 50%
[1]; capsaicin 0.5 mg dose
  Incidence of TEAEs: 47%
  TEAEs mild in severity: 29%
  TEAEs moderate in severity: 18%
[1]; capsaicin 0.5 mg dose group, not considered treatment related
  SAE: One SAE (shoulder pain from osteoarthritis)
[1]; capsaicin 1.0 mg dose
  Incidence of TEAEs: 30%
  TEAEs mild in severity: 20%
  TEAEs moderate in severity: 9.9%
  arthralgia (TEAE): 7.0%
[1]; capsaicin regardless of dose
  arthralgia (TEAE): 7.6%
  upper respiratory tract infection (TEAE): 4.8%
[1]; [7]
  All TEAEs: 37 (35) n (%)
  Arthralgia: 8 (7.6) n (%)
  Hepatic enzyme increased: 3 (2.9) n (%)
  Influenza: 3 (2.9) n (%)
  Joint effusion: 3 (2.9) n (%)
  Nasopharyngitis: 3 (2.9) n (%)
  Upper respiratory tract infection: 5 (4.8) n (%)
[1]; single injection, 1.0 mg dose, up to 24 weeks, comparable to placebo
  tolerability / safety profile: well tolerated
[2]; 0.5 mg dose, week 4
  PSFS: LSMD versus Placebo: 0.01
[2]; 0.5 mg dose, week 8
  PSFS: LSMD versus Placebo: −0.03
[2]; 0.5 mg dose, week 12
  PSFS: LSMD versus Placebo: −0.4
[2]; 0.5 mg dose, week 16
  PSFS: LSMD versus Placebo: −0.5
[2]; 0.5 mg dose, week 24
  PSFS: LSMD versus Placebo: −0.05
[2]; 1.0 mg dose, week 4
  PSFS: LSMD versus Placebo: −1.4
[2]; 1.0 mg dose, week 8
  PSFS: LSMD versus Placebo: −0.9
[2]; 1.0 mg dose, week 12
  PSFS: LSMD versus Placebo: −1.1
[2]; 1.0 mg dose, week 16
  PSFS: LSMD versus Placebo: −0.9
[2]; 1.0 mg dose, week 24
  PSFS: LSMD versus Placebo: −0.5
[2]; 1.0 mg dose, weeks 4-16
  PSFS: ability to perform activities versus placebo: significantly improved
[3]
  WOMAC B score, LSMD versus placebo: −2.1
  WOMAC C score, LSMD versus placebo: −14.8
[4]; 0.5 mg dose, week 4
  PGIC: Odds Ratio vs Placebo: 1.76
  PGIC: proportion of patients reporting significant improvement in the index knee: 58%
[4]; 0.5 mg dose, week 8
  PGIC: Odds Ratio vs Placebo: 1.89
[4]; 0.5 mg dose, week 12
  PGIC: Odds Ratio vs Placebo: 2.75
[4]; 0.5 mg dose, week 16
  PGIC: Odds Ratio vs Placebo: 2.37
[4]; 0.5 mg dose, week 24
  PGIC: Odds Ratio vs Placebo: 1.68
[4]; 1.0 mg dose, week 4
  PGIC: Odds Ratio vs Placebo: 2.34
  PGIC: proportion of patients reporting significant improvement in the index knee: 64%
[4]; 1.0 mg dose, week 8
  PGIC: Odds Ratio vs Placebo: 2.50
[4]; 1.0 mg dose, week 12
  PGIC: Odds Ratio vs Placebo: 2.40
[4]; 1.0 mg dose, week 16
  PGIC: Odds Ratio vs Placebo: 1.85
[4]; 1.0 mg dose, week 24
  PGIC: Odds Ratio vs Placebo: 1.64
[4]; 1.0 mg dose, weeks 4, 8 and 12
  PGIC: likelihood of significant improvement compared with placebo: greater than two-fold likelihood

## COc1cc(CNC(=O)CCCCC=CC(C)C)ccc1O [trans-capsaicin, N-[(4-hydroxy-3-methoxyphenyl)methyl]-8-methylnon-6-enamide]
[5]; four weeks after first dose, vs prior to first dose
  reduction in average walking pain due to the intermetatarsal neuroma (NPRS): 1.6 point
[5]; four weeks after second dose, vs just prior to second dose
  reduction in average walking pain due to the intermetatarsal neuroma (NPRS): 2.3 point
